In ChEMBL document CHEMBL1138084, “Synthesis and SAR of novel histamine H3 receptor antagonists” (Bioorg Med Chem Lett, 2006):

Tests used:
[1] = molecular target: Histamine H3 receptor (Homo sapiens, UniProt Q9Y5N1); assay: Displacement of [3H]N-alpha-methylhistamine from human cloned H3 receptor
[2] = molecular target: Histamine H3 receptor (Rattus norvegicus, UniProt Q9QYN8); assay: Displacement of [3H]N-alpha-methylhistamine from rat cloned H3 receptor
[3] = Oral bioavailability in rat at 10 mg/kg; type: ADME, organism-based; conditions: in vivo
[4] = Inhibition of [3H]R-alpha-methylhistamine binding to brain of po dosed rat; type: functional, organism-based

Sequence of Histamine H3 receptor (Rattus norvegicus, UniProt Q9QYN8) (Q9QYN8 whole entry): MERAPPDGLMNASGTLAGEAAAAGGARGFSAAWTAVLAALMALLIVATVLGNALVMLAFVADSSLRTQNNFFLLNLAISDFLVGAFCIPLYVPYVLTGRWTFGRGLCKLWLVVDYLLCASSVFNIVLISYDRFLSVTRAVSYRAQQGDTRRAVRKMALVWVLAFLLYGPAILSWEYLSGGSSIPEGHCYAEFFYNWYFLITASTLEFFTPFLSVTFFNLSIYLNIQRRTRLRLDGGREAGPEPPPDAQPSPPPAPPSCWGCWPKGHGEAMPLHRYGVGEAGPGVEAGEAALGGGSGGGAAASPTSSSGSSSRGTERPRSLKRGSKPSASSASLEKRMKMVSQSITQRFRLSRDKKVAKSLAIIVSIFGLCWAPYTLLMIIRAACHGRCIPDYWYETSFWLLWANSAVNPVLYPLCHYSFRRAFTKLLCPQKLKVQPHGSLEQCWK
Sequence of Histamine H3 receptor (Homo sapiens, UniProt Q9Y5N1) (Q9Y5N1 whole entry): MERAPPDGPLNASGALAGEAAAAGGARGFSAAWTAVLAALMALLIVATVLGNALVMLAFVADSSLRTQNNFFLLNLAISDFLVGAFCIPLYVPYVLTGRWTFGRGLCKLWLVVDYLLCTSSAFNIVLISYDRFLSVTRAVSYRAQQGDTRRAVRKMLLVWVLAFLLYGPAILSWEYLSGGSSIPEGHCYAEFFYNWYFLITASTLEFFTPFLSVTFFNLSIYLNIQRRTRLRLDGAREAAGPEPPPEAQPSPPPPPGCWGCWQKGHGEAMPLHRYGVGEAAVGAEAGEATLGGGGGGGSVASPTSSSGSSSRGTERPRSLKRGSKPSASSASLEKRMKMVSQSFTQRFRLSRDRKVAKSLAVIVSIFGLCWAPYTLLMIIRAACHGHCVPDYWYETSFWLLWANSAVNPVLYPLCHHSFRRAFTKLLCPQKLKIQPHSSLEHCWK

Q: With `O=S(=O)(c1ccccc1)N1CCCc2cc(OCCCN3CCCCC3)ccc21` as the compound, how does the Ki ([1]; read-out: Ki) read?
A: 18 nM

Q: With `c1cc2c(cc1OCCCN1CCCCC1)CN(CC1CCCCC1)CC2` as the compound, how does the Ki ([1]; read-out: Ki) read?
A: 0.35 nM

Q: What about the Ki [2] of the same compound?
A: 0.46 nM

Q: With `CC(C)N1CCc2ccc(OCCCN3CCCCC3)cc2C1` as the compound, how does the Ki ([1]; read-out: Ki) read?
A: 0.17 nM

Q: What about the Ki [2] of the same compound?
A: 0.89 nM

Q: Which Ki ([1]; read-out: Ki) does the source give for `c1cc2c(cc1OCCCN1CCCCC1)CCCN2CC1CCCCC1` here?
A: 31 nM

Q: For `CC(C)N1CCCc2cc(OCCCN3CCCCC3)ccc2C1`, which Ki ([1]; read-out: Ki) is on record?
A: 0.2 nM

Q: What about the bioavailability [3] of the same compound?
A: ≥ 100%

Q: What about the IC50 [4] of the same compound?
A: 5.3 mg/kg

Q: And the Ki [2]?
A: 1.29 nM

Q: With `c1cc2c(c(OCCCN3CCCCC3)c1)CN(CC1CCCCC1)CC2` as the compound, how does the Ki ([1]; read-out: Ki) read?
A: 59 nM

Q: Which Ki ([1]; read-out: Ki) does the source give for `c1cc2c(c(OCCCN3CCCCC3)c1)NCCC2` here?
A: > 300 nM

Q: Which results are given for `CC(C)NC(=O)N1CCc2ccc(OCCCN3CCCCC3)cc2C1`?
A: Ki ([1]; read-out: Ki): 4.9 nM; Ki [2]: 39.6 nM

Q: With `O=C(c1cccs1)N1CCCc2cccc(OCCCN3CCCCC3)c21` as the compound, how does the Ki ([1]; read-out: Ki) read?
A: > 300 nM

Q: Which results are given for `CS(=O)(=O)N1CCc2ccc(OCCCN3CCCCC3)cc2CC1`?
A: Ki ([1]; read-out: Ki): 12.1 nM; Ki [2]: 38.1 nM

Q: For `c1cc2c(c(OCCCN3CCCCC3)c1)N(CC1CCCCC1)CCC2`, which Ki ([1]; read-out: Ki) is on record?
A: > 300 nM

Q: Which Ki ([1]; read-out: Ki) does the source give for `CCN1CCCc2ccc(OCCCN3CCCCC3)cc21` here?
A: 156 nM

Q: With `c1cc2c(cc1OCCCN1CCCCC1)CNCC2` as the compound, how does the Ki ([1]; read-out: Ki) read?
A: 0.6 nM

Q: For `CCN1CCc2c(cccc2OCCCN2CCCCC2)C1`, which Ki ([1]; read-out: Ki) is on record?
A: 84.2 nM

Q: With `CCN1CCCc2c(OCCCN3CCCCC3)cccc21` as the compound, how does the Ki ([1]; read-out: Ki) read?
A: > 300 nM

Q: With `CC(=O)N1CCc2ccc(OCCCN3CCCCC3)cc2CC1` as the compound, how does the Ki ([1]; read-out: Ki) read?
A: 11.6 nM

Q: What about the Ki [2] of the same compound?
A: 48.8 nM

Q: For `CS(=O)(=O)N1CCCc2cc(OCCCN3CCCCC3)ccc2C1`, which Ki ([1]; read-out: Ki) is on record?
A: 2.9 nM

Q: And the Ki [2]?
A: 70.1 nM

Q: Which Ki [1] does the source give for `c1cc2c(cc1OCCCN1CCCCC1)CCNC2` here?
A: 2.4

Q: Which Ki ([1]; read-out: Ki) does the source give for `c1cc2c(cc1OCCCN1CCCCC1)CCN(CC1CCCCC1)C2` here?
A: 1.01 nM

Q: For `O=S(=O)(c1ccccc1)N1CCc2c(cccc2OCCCN2CCCCC2)C1`, which Ki ([1]; read-out: Ki) is on record?
A: > 300 nM

Q: For `O=S(=O)(c1ccccc1)N1CCc2ccc(OCCCN3CCCCC3)cc2C1`, which Ki ([1]; read-out: Ki) is on record?
A: 0.53 nM

Q: Which results are given for `CCN1CCc2ccc(OCCCN3CCCCC3)cc2C1`?
A: Ki ([1]; read-out: Ki): 0.34 nM; bioavailability [3]: 69%; IC50 [4]: 1.1 mg/kg; Ki [2]: 0.64 nM

Q: For `c1cc2c(cc1OCCCN1CCCCC1)CCN(CC1CCCCC1)CC2`, which Ki ([1]; read-out: Ki) is on record?
A: 0.53 nM

Q: And the Ki [2]?
A: 0.97 nM

Q: For `O=S(=O)(c1ccccc1)N1CCCc2cccc(OCCCN3CCCCC3)c21`, which Ki ([1]; read-out: Ki) is on record?
A: > 300 nM

Q: Which results are given for `CCN1CCCc2cc(OCCCN3CCCCC3)ccc2C1`?
A: Ki ([1]; read-out: Ki): 0.34 nM; Ki [2]: 0.56 nM

Q: With `c1cc2c(c(OCCCN3CCCCC3)c1)CCNC2` as the compound, how does the Ki ([1]; read-out: Ki) read?
A: > 300 nM

Q: Which Ki ([1]; read-out: Ki) does the source give for `CCN1CCCc2cc(OCCCN3CCCCC3)ccc21` here?
A: 41 nM

Q: For `c1cc2c(cc1OCCCN1CCCCC1)N(CC1CCCCC1)CCC2`, which Ki ([1]; read-out: Ki) is on record?
A: 187 nM

Q: Which Ki ([1]; read-out: Ki) does the source give for `O=S(=O)(c1ccccc1)N1CCCc2ccc(OCCCN3CCCCC3)cc21` here?
A: 7.3 nM

Q: For `CC(C)N1CCc2ccc(OCCCN3CCCCC3)cc2CC1`, which Ki ([1]; read-out: Ki) is on record?
A: 0.72 nM

Q: And the Ki [2]?
A: 1.6 nM

Q: Which Ki ([1]; read-out: Ki) does the source give for `O=S(=O)(c1ccccc1)N1CCc2cc(OCCCN3CCCCC3)ccc2C1` here?
A: 7.4 nM

Q: Which Ki ([1]; read-out: Ki) does the source give for `CCN1CCc2cc(OCCCN3CCCCC3)ccc2C1` here?
A: 0.54 nM

Q: What does the source list for `CCN1CCc2ccc(OCCCN3CCCCC3)cc2CC1`?
A: Ki ([1]; read-out: Ki): 0.26 nM; Ki [2]: 1.1 nM

Q: With `CC(C)NC(=O)N1CCCc2cc(OCCCN3CCCCC3)ccc2C1` as the compound, how does the Ki ([1]; read-out: Ki) read?
A: 17.1 nM

Q: What about the Ki [2] of the same compound?
A: 32.5 nM

Q: Which Ki ([1]; read-out: Ki) does the source give for `c1cc2c(c(OCCCN3CCCCC3)c1)CCN(CC1CCCCC1)C2` here?
A: 15.4 nM

Q: With `O=C(c1cccs1)N1CCc2c(cccc2OCCCN2CCCCC2)C1` as the compound, how does the Ki ([1]; read-out: Ki) read?
A: > 300 nM

Q: With `c1cc2c(cc1OCCCN1CCCCC1)NCCC2` as the compound, how does the Ki ([1]; read-out: Ki) read?
A: 129 nM

Q: For `c1cc(OCCCN2CCCCC2)c2c(c1)N(CC1CCCCC1)CCC2`, which Ki ([1]; read-out: Ki) is on record?
A: 141 nM

Q: For `c1cc2c(cc1OCCCN1CCCCC1)CCCN2`, which Ki ([1]; read-out: Ki) is on record?
A: 54 nM

Q: With `CCN1CCCc2cccc(OCCCN3CCCCC3)c21` as the compound, how does the Ki ([1]; read-out: Ki) read?
A: > 300 nM

Q: What does the source list for `CS(=O)(=O)N1CCc2ccc(OCCCN3CCCCC3)cc2C1`?
A: Ki ([1]; read-out: Ki): 23.8 nM; Ki [2]: 74.5 nM

Q: Which Ki ([1]; read-out: Ki) does the source give for `CC(=O)N1CCc2ccc(OCCCN3CCCCC3)cc2C1` here?
A: 19.4 nM

Q: What about the Ki [2] of the same compound?
A: 36.7 nM

Q: Which Ki ([1]; read-out: Ki) does the source give for `c1ccc(CN2CCCc3cc(OCCCN4CCCCC4)ccc3C2)cc1` here?
A: 0.2 nM

Q: And the Ki [2]?
A: 0.8 nM

Q: Which Ki ([1]; read-out: Ki) does the source give for `c1cc2c(c(OCCCN3CCCCC3)c1)CNCC2` here?
A: 154 nM

Q: Which Ki ([1]; read-out: Ki) does the source give for `CCN1CCc2cccc(OCCCN3CCCCC3)c2C1` here?
A: 95.2 nM

Q: With `CC(C)NC(=O)N1CCc2ccc(OCCCN3CCCCC3)cc2CC1` as the compound, how does the Ki ([1]; read-out: Ki) read?
A: 42.3 nM

Q: With `O=C(c1cccs1)N1CCc2cccc(OCCCN3CCCCC3)c2C1` as the compound, how does the Ki ([1]; read-out: Ki) read?
A: > 300 nM

Q: For `O=S(=O)(c1ccccc1)N1CCc2cccc(OCCCN3CCCCC3)c2C1`, which Ki ([1]; read-out: Ki) is on record?
A: > 300 nM

Q: For `O=C(c1cccs1)N1CCCc2ccc(OCCCN3CCCCC3)cc21`, which Ki ([1]; read-out: Ki) is on record?
A: 22.6 nM

Q: With `O=C(c1cccs1)N1CCc2ccc(OCCCN3CCCCC3)cc2C1` as the compound, how does the Ki ([1]; read-out: Ki) read?
A: 8.1 nM

Q: With `O=C(c1cccs1)N1CCc2cc(OCCCN3CCCCC3)ccc2C1` as the compound, how does the Ki ([1]; read-out: Ki) read?
A: 2.1 nM

Q: Which Ki ([1]; read-out: Ki) does the source give for `c1cc2c(c(OCCCN3CCCCC3)c1)CCCN2` here?
A: > 300 nM
